Assay results: US20060106085A1, “Methods and compositions using PDE4 modulators for treatment and management of central nervous system injury” (priority 2004, published 2006)

How the values were obtained:
PDE4 = test: Inhibition of PDE4 enzyme purified from U937 human monocytic cells; format: biochemical; details: 1 μM cAMP, 30 min at 30° C.
Method: PDE4 enzyme was purified from U937 human monocytic cells by gel filtration chromatography as previously described (Muller et al. 1998, Bioorg. & Med Chem Lett 8:2669-2674). Phosphodiesterase reactions were carried out in 50 mM Tris HCl pH 7.5, 5 mM MgCl2, 1 μM cAMP, 10 nM [^311)-cAMP for 30 min at 30° C., terminated by boiling, treated with 1 mg/ml snake venom, and separated using AG-1×S ion exchange resin (BioRad) as described (Muller et al. 1998, Bioorg. & Med Chem Lett 8:2669-2674). Reactions consumed less than 15% of available substrate.

[1] = tested on: TNF-α production from human PBMC; test: IL-1β-induced TNF-α production from human PBMC; format: cell-based; details: 50 ng/ml recombinant human IL-1β, 18 hours
Method: During the course of inflammatory diseases, TNF-α production is often stimulated by the cytokine 1L-1β rather than by bacterially derived LPS. 3-(3,4-Dimethoxy-phenyl)-3-(1-oxo-1,3-dihydro-isoindol-2-yl)-propionamide was tested for the ability to inhibit IL-1β-induced TNF-α production from human PBMC as described above for LPS-induced TNF-α production, except that the PBMC are isolated from source leukocyte units (Sera-Tec Biologicals, North Brunswick, N.J., USA) by centrifugation on Ficoll-Paque Plus (Amersham Pharmacia, Piscataway, N.J., USA), plated in 96-well tissue culture plates at 3×10^5 cells/well in RPMI-1640 medium (BioWhittaker, Walkersville, Md., USA) containing 10% heat-inactivated fetal bovine serum (Hyclone), 2 mM L-glutamine, 100 U/ml penicillin, and […] (complete medium), pretreated with compounds at 10, 2, 0.4, 0.08, 0.016, 0.0032, 0.00064, and 0 μM in duplicate at a final DMSO concentration of 0.1% at 37° C. in a humidified incubator at 5% CO2 for 1 hour, then stimulated with 50 ng/ml recombinant human IL-1β (Endogen) for 18 hours.

[2] = Cardiovascular and respiratory function in anesthetized dogs; format: in vivo; details: anesthetized Beagle dogs, 400, 800, and 1,200 mg/kg/day ascending doses, infusion through the jugular vein, compared to vehicle control
Method: The effects of 3-(3,4-dimethoxy-phenyl)-3-(1-oxo-1,3-dihydro-isoindol-2-yl)-propionamide on cardiovascular and respiratory function are investigated in anesthetized dogs. Two groups of Beagle dogs (2/sex/group) are used. One group receives three doses of vehicle only and the other receives three ascending doses of 3-(3,4-dimethoxy-phenyl)-3-(1-oxo-1,3-dihydro-isoindol-2-yl)-propionamide (400, 800, and 1,200 mg/kg/day). In all cases, doses of 3-(3,4-dimethoxy-phenyl)-3-(1-oxo-1,3-dihydro-isoindol-2-yl)-propionamide or vehicle are successively administered via infusion through the jugular vein separated by intervals of at least 30 minutes.

[3] = tested on: TNF-α production from human PBMC; test: LPS-induced TNF-α production from human PBMC; format: cell-based; details: LPS 100 ng/ml, compound added 1 hour before LPS, 18-20 hours, ELISA
Method: Inhibition of TNF-α production following LPS-stimulation of human PBMC and human whole blood by 3-(3,4-dimethoxy-phenyl)-3-(1-oxo-1,3-dihydro-isoindol-2-yl)-propionamide is investigated in vitro (Muller et al., Bioorg. Med. Chem. Lett. 9:1625-1630, 1999). The IC50's of 3-(3,4-dimethoxy-phenyl)-3-(1-oxo-1,3-dihydro-isoindol-2-yl)-propionamide for inhibiting production of TNF-α following LPS-stimulation of PBMC and human whole blood is measured.
For example, 3-(3,4-dimethoxy-phenyl)-3-(1-oxo-1,3-dihydro-isoindol-2-yl)-propionamide was tested for the ability to inhibit LPS-induced TNF-α production from human PBMC as previously described (Muller et al. 1996, J. Med. Chem. 39:3238). PBMC from normal donors were obtained by Ficoll Hypaque (Pharmacia, Piscataway, N.J., USA) density centrifugation. Cells were cultured in RPMI (Life Technologies, Grand Island, N.Y., USA) supplemented with 10% AB±human serum (Gemini Bio-products, Woodland, Calif., USA), 2 mM L-glutamine, 100 U/ml penicillin, and 100 μg/ml streptomycin (Life Technologies).
PBMC (2×10^5 cells) were plated in 96-well flat-bottom Costar tissue culture plates (Corning, N.Y., USA) in triplicate. Cells were stimulated with LPS (Sigma, St. Louis, Mo., USA) at 100 ng/ml in the absence or presence of compounds. […]

spinal cord contusion = details: cited from earlier work

In the case of `COc1ccc(C(CC(N)=O)N2Cc3ccccc3C2=O)cc1OC` (stereo not shown) [3-(3,4-dimethoxy-phenyl)-3-(1-oxo-1,3-dihydro-isoindol-2-yl)-propionamide], the IC50 (PDE4) is reported as 15 µM, the IC50 [1] is reported as 16 µM and the “cardiovascular and respiratory changes” value [2] is reported as “minimal at all doses”. The IC50 [3] was 21 µM.
In the case of `COc1ccc(C2CNC(=O)C2)cc1OC1CCCC1` (stereo not shown) [rolipram], the locomotion (spinal cord contusion; combination of rolipram with db-cAMP) is listed as “improved locomotion”, the “axon sparing and myelination” value (spinal cord contusion; combined with Schwann cell grafts) is listed as “promoted significant supraspinal and proprioceptive axon sparing and myelination” and the “cAMP levels after spinal cord contusion” value (spinal cord contusion; rolipram alone) is listed as “prevented the decrease of cAMP levels”.
